Results reported in patent publication US20180280337A1, “NUTRITIONAL COMPOSITIONS COMPRISING SN-1(3) MONOACYLGLYCEROLS FOR USE IN THE TREATMENT OF GROWTH DELAY IN INFANTS OR CHILDREN” (NESTEC S.A., priority 2014, published 2018).

Assays:
[1] = Lipid maldigestion or malabsorption rat model (XENICAL-induced): EPA level in red blood cells and tissue after feeding EPA glycerides or fish oil; assay type: in vivo; conditions: for level of EPA incorporated in red blood cells: rats given XENICAL, day 7 data (FIG. 3)
Experimental: The concept was tested in a lipid maldigestion or malabsorption rat model. The maldigestion or malabsorption condition was obtained using XENICAL® (ORLISTAT, tetrahydrolipstatin), a pancreatic and gastric lipases inhibitor. Rats were fed during 21 days with long-chain polyunsaturated fatty acid (LC-PUFA) supplements containing mainly eicosapentaenoic (EPA) acid. Fish oil was used as a source of triacylglycerols, and different EPA glycerides were evaluated: Vanillin acetal of 2-EPA (from Stepan Lipid Nutrition); 1,3 Diacetyl-2 EPA (from Stepan Lipid Nutrition) and Sn-1(3)-MAG-EPA (purchased from Cognis GmbH, Germany). XENICAL® (ORLISTAT) was given at a level sufficient to decrease lipid absorption by 40%. A group receiving fish oil without XENICAL® (ORLISTAT) was used as a positive control. At different time intervals (D3, D7, […]), the fatty acid profiles of red blood cells and plasma lipids were determined. At the end of the experiment, the fatty acid profiles of different tissues were determined. The main objective was to follow the level of EPA in red blood cells and plasma lipids. The main comparison evaluated was the difference in EPA level between the group receiving EPA glycerides such as EPA-containing sn-1(3) MAG, in combination with XENICAL® (ORLISTAT) and the positive control group […].

[2] = Clinical study comparing sn-1(3) MAG and fish oil (TAG) in delivering EPA under lipid maldigestion induced by XENICAL; assay type: in vivo, humans; conditions: for chronic effect: accretion of EPA in erythrocytes as percentage of total fatty acids: compared with fish oil + XENICAL, p=0.0001 (FIG. 6)
Experimental: This clinical study compared the efficacy of sn-1(3) MAG and fish oil (TAG) in delivering EPA in humans under lipid maldigestion conditions induced by XENICAL® (ORLISTAT). The comparison was tested in volunteers treated with XENICAL® to induce lipid maldigestion or not treated with XENICAL® (ORLISTAT). The primary objective was to assess accretion of EPA in erythrocytes over 21 days when consumed as fish oil (TAG) or sn-1(3) MAG. The secondary objectives were to assess accretion of EPA in plasma over 21 days and also to assess the pharmacokinetics of EPA after an acute dose either in the form of sn-1(3) MAG or TAG (AUC in chylomicrons over 10 hours postprandial). See FIG. 4 that describes the clinical study timeline.

SMILES | effect of XENICAL on EPA incorporation in red blood cells ([1]; fish oil + XENICAL compared with fish oil without XENICAL, day 7) | chronic effect: accretion of EPA in erythrocytes as percentage of total fatty acids ([2]; after 21 days, with XENICAL) | chronic effect: accretion of EPA in erythrocytes as percentage of total fatty acids ([2]; after 21 days, with XENICAL, listed as sn-1(3)MAGs) | chronic effect: accretion of EPA in plasma as percentage of total fatty acids ([2]; after 21 days, with XENICAL, relative to fish oil + XENICAL, p=0.0003 (FIG. 7)) | carrier for EPA (overall conclusion of the clinical trial) ([2]; human subjects treated with XENICAL, compared with fish oil (TAG)) | incorporation of LC-PUFAs in tissue ([1]; conditions of lipid maldigestion or malabsorption (XENICAL), comparison of groups A, B and C) | level of EPA incorporated in red blood cells ([1]; compared with fish oil group without XENICAL) | level of EPA incorporated in red blood cells ([1]; fed 21 days, compared with fish oil + XENICAL, all P values lower than 0.05, listed as sn-1(3) MAG that contained EPA) | level of EPA incorporated in red blood cells ([1]; fed 21 days, compared with fish oil + XENICAL, all P values lower than 0.05, listed as sn-1(3)MAGs)
CCCCCCCCCCC[C@@H](C[C@@H]1OC(=O)[C@H]1CCCCCC)OC(=O)[C@H](CC(C)C)NC=O [XENICAL, tetrahydrolipstatin, reference compound] | decreases EPA incorporation in red blood cells | – | – | – | – | – | – | – | –
CC/C=C\C/C=C\C/C=C\C/C=C\C/C=C\CCCC(=O)OCC(O)CO (stereo not drawn) [sn-1(3) MAG, sn-1(3)-monoeicosapentaenoylglycerol] | – | statistically significant | significantly higher | statistically significant | better carrier for EPA than fish oil (TAG) | improved | even higher than the fish oil group | statistically higher | significantly higher
